{"source": "patent EP0474580B1", "about": "“Use of 1-[3-(dimethylamino)propyl]-1-phenylphthalenes for the treatment of cerebrovascular disorders” (priority 1990, dated 1992)", "key": {"[1]": {"tested_on": "carbon dioxide-induced amnesia", "test": "Carbon dioxide-induced amnesia in rats (one-trial passive avoidance test)", "format": "in vivo, Sprague-Dawley (CD) rats", "details": "for group mean 'step-through' times: oral", "description": "The test employed was a one-trial passive avoidance test in rats, using carbon dioxide asphyxiation to induce amnesia. Female Sprague-Dawley (CD) rats (A. Tick & Son Ltd.) in the body weight range 160-180g were used for the study. The one-trial passive avoidance apparatus consisted of a 32 x 32 x 32 cm chamber with opaque walls and a metal grid floor. A 6 cm wide , 25 cm long runway protruded from the front wall of the chamber. The runway was illuminated while the chamber was dark. When placed on the runway, a rat could enter the chamber through a 6 x 6 cm opening. A scrambled footshock could be delivered through the metal grid floor of the chamber. On the first day of the experiment, the rats received three pre-treatment training trials, during which each animal was placed on the end of the runway and the time taken to enter the chamber (the 'step-through' latency) was determined. On the second day of the experiment, groups of 10 animals were treated p.o. with test compound dissolved in saline or with saline. One hour after administration, an acquisition trial was performed. This was similar to a training trial, except that the rats received a footshock of 1.0 mA for 10 s commencing 10 s after entering the chamber. Immediately after the application of the footshock the animals were subjected to amnesic treatment. Amnesic treatment consisted of placing the rats in a box filled with carbon dioxide until respiratory arrest occurred; the rats were then revived by artificial respiration. 24 Hours after the acquisition trial, a single retrieval trial was given to each rat and the time taken to enter the chamber ('step-through' latency) was recorded for each animal."}, "[2]": {"tested_on": "ischemia induced hippocampal neuronal damage", "test": "Ischemia-induced hippocampal death in gerbils", "format": "in vivo, Mongolian gerbils", "details": "for Survival neurons/mm mean: counted along CA1 after seven days; for protective effect against neuronal lesions: vs vehicle", "experimental": "Test compounds were administered intraperitoneally to Male Mongolian gerbils 30 min before carotid occlusion. Carotid occlusion time was 5 min . Seven days after recovery, the animals were killed, brains removed, sectioned and surviving neurons were counted along CA1 in the hippocampus."}, "[3]": {"tested_on": "vascular dementia (VD, incl. MID)", "details": "patients with vascular dementia (VD, incl. MID); Nyth et al. 1989; cited from earlier work"}, "[4]": {"test": "Toxicity study, oral administration in rats", "format": "in vivo", "details": "350 mg/kg orally, male and female SD rats, observed for one week", "description": "In toxicity studies male and female SD rats ranging in weight from 170 g to 200 g were used one day after fasting."}, "[5]": {"tested_on": "moderate dementia of Alzheimer's type (AD/SDAT) or multi-infarct dementia (MID)", "details": "patients with moderate AD/SDAT or MID; Nyth et al. 1988/1990; cited from earlier work"}, "[6]": {"tested_on": "passive avoidance in ischemic gerbils", "test": "Step-down passive avoidance in ischemic gerbils", "format": "in vivo", "details": "for Step-down latency [log(s)] Mean: ischemic gerbils, testing phase (max. 60 s); for latency of ischemic gerbils (testing phase): vs ischemic control", "experimental": "The test employed was step-down passive avoidance in gerbils treated with test compounds prior to occlusion of carotid arteries followed by acquisition trial (training phase).\nTest compounds were administered intraperitoneally to gerbils 30 min prior to carotid occlusion or ketamine was administered intraperitoneally 10 min prior to carotid occlusion. The gerbils were anesthetized with 2% halothane contained in a mixture of 70% nitrogen and 30% oxygen. The right and left common carotid arteries were occluded for 5 min. The gerbils were trained for 5 min in a step-down type passive avoidance chamber (16x16x20 cm) two days after induced ischemia. Each gerbil was placed on a safety platform (6x16x20 cm) in the chamber and received a series of mild foot shocks (0.1 mA for 3 s every 6 s), when the gerbil stepped down to a floor made of metal rods. Gerbils were returned to the safety platform for testing 24 h later and their step-down latencies to the grid floor were recorded (max. 60 s). RESULTS"}, "KCN-induced coma": {"tested_on": "KCN-induced coma", "test": "KCN-induced coma in mice", "format": "in vivo, mice (Crj:ICR)", "details": "for coma time: vs vehicle", "experimental": "Male mice (Crj:ICR) weighing 20-30 g were used. The mice were fasted for one day. The drugs, dissolved in saline, were injected intraperitoneally. 30 min after the injection, KCN, dissolved in saline, was injected intravenously at a dose of 1.3 mg/kg. The duration of disappearance of righting reflex was measured as coma time."}, "[7]": {"tested_on": "depression associated with Alzheimer's disease", "details": "C.G. Gottfries, Psychopharmacology, 1988; cited from earlier work"}, "[8]": {"tested_on": "ischemia-induced death in bilateral carotid arterial ligation (BCAL)", "test": "Brain ischemia-induced death in mice (bilateral carotid arterial ligation)", "format": "in vivo, ICR MICE", "experimental": "Male ICR MICE (Charles River) weighing 30 - 40 g were used after they were fasted for 1 day.\n[…] Surviving mice were observed over 4 h."}}, "note": "Marks after values point to notes of the source that are not given here.", "data": [{"smiles": "CN(C)CCCC1(c2ccc(F)cc2)OCc2cc(C#N)ccc21", "note": "(stereo not drawn) [Citalopram, citalopram]", "values": [{"measurement": "Latency", "setting": "[1]; 5 mg/kg p.o. one hour before acquisition trial, CO2 treatment +, retrieval trial 24 h later (max. 180 s)", "result": 31.2, "unit": "s"}, {"measurement": "Latency (s)", "setting": "[1]; 10 mg/kg p.o. one hour before acquisition trial, CO2 treatment +, retrieval trial 24 h later (max. 180 s)", "result": "77.2** s"}, {"measurement": "Latency (s)", "setting": "[1]; 20 mg/kg p.o. one hour before acquisition trial, CO2 treatment +, retrieval trial 24 h later (max. 180 s)", "result": "114.3*** s"}, {"measurement": "group mean 'step-through' times", "setting": "[1]; 2 highest doses tested (i.e. 20 and 40 mg/kg)", "result": "marked and highly significant increase"}, {"measurement": "group mean 'step-through' times", "setting": "[1]; all doses tested, vs saline-treated control group", "result": "dose-related increases"}, {"measurement": "Survival neurons/mm mean", "setting": "[2]; 20 mg/kg i.p. 30 min before 5 min carotid occlusion", "result": 38.0, "unit": "neurons/mm"}, {"measurement": "protective effect against neuronal lesions", "setting": "[2]; 20 mg/kg", "result": "weak but non-significant protective effect"}, {"measurement": "Survival neurons/mm mean", "setting": "[2]; 40 mg/kg i.p. 30 min before 5 min carotid occlusion", "result": 95.8, "unit": "neurons/mm"}, {"measurement": "protective effect against neuronal lesions", "setting": "[2]; 40 mg/kg", "result": "significant (p < 0.05 ) protective effect"}, {"measurement": "emotional disturbances", "setting": "[3]", "result": "no significant improvement"}, {"measurement": "deaths", "setting": "[4]", "result": "no deaths were observed"}, {"measurement": "effect on intellectual functions", "setting": "[5]", "result": "did not appear to have effect"}, {"measurement": "emotional lability, motivation, confusion, fear-panic, irritation, reduced mood and restlessness", "setting": "[5]", "result": "significant improvements"}, {"measurement": "Step-down latency [log(s)] Mean", "setting": "[6]; 20 mg/kg i.p. 30 min prior to carotid occlusion", "result": "1.386 log(s)"}, {"measurement": "latency of ischemic gerbils (testing phase)", "setting": "[6]; 20 mg/kg", "result": "significantly increased the latency"}, {"measurement": "Coma time (s) Mean", "setting": "KCN-induced coma; 1.25 mg/kg i.p. 30 min before KCN 1.3 mg/kg i.v.", "result": 38.5, "unit": "s"}, {"measurement": "Coma time (s) Mean", "setting": "KCN-induced coma; 2.5 mg/kg i.p. 30 min before KCN 1.3 mg/kg i.v.", "result": 33.2, "unit": "s"}, {"measurement": "Coma time (s) Mean", "setting": "KCN-induced coma; 5 mg/kg i.p. 30 min before KCN 1.3 mg/kg i.v.", "result": 35.0, "unit": "s"}, {"measurement": "Coma time (s) Mean", "setting": "KCN-induced coma; 10 mg/kg i.p. 30 min before KCN 1.3 mg/kg i.v.", "result": 27.4, "unit": "s"}, {"measurement": "coma time", "setting": "KCN-induced coma; 10 mg/kg intraperitoneal", "result": "significantly reduced coma time"}, {"measurement": "effect against depression associated with Alzheimer's disease", "setting": "[7]", "result": "effective"}]}, {"smiles": "CC(C(O)c1ccc(O)cc1)N1CCC(Cc2ccccc2)CC1", "note": "(stereo not drawn) [Ifenprodil]", "values": [{"measurement": "Survival rate (%) 2 h after BCAL", "setting": "[8]; 30 mg/kg,p.o., 30 min prior to ligation, 2 h after BCAL", "result": "47** %"}, {"measurement": "Survival rate (%) 4 h after BCAL", "setting": "[8]; 30 mg/kg,p.o., 30 min prior to ligation, 4 h after BCAL", "result": 20, "unit": "%"}, {"measurement": "ischemia-induced death / survival rate 2 h after ligation", "setting": "[8]; 30 mg/kg, 2 h after bilateral carotid arterial ligation, vs saline", "result": "significantly increased survival rate"}, {"measurement": "ischemia-induced death / survival rate 4 h after ligation", "setting": "[8]; 30 mg/kg, 4 h after bilateral carotid arterial ligation, vs saline", "result": "did not significantly increase survival rate"}]}, {"smiles": "C1=Cc2cccc(OCC3CNCCO3)c2C1", "note": "(stereo not drawn) [Indeloxazine, reference compound]", "values": [{"measurement": "Step-down latency [log(s)] Mean", "setting": "[6]; 40 mg/kg i.p. 30 min prior to carotid occlusion", "result": "1.085 log(s)"}, {"measurement": "latency of ischemic gerbils (testing phase)", "setting": "[6]; 40 mg/kg", "result": "not significantly different"}, {"measurement": "Coma time (s) Mean", "setting": "KCN-induced coma; 20 mg/kg i.p. 30 min before KCN 1.3 mg/kg i.v.", "result": 13.8, "unit": "s"}, {"measurement": "coma time", "setting": "KCN-induced coma; 20 mg/kg", "result": "significantly reduced the coma time"}]}, {"smiles": "CNC1(c2ccccc2Cl)CCCCC1=O", "note": "(stereo not drawn) [Ketamine, reference compound]", "values": [{"measurement": "Survival neurons/mm mean", "setting": "[2]; 100 mg/kg i.p. before 5 min carotid occlusion", "result": 174.5, "unit": "neurons/mm"}, {"measurement": "protective effect against neuronal lesions", "setting": "[2]; 100 mg/kg", "result": "significant (p < 0.01) protective effect"}, {"measurement": "Step-down latency [log(s)] Mean", "setting": "[6]; 120 mg/kg i.p. 10 min prior to carotid occlusion", "result": "1.348 log(s)"}, {"measurement": "latency of ischemic gerbils (testing phase)", "setting": "[6]; 120 mg/kg", "result": "significantly increased the latency"}]}, {"smiles": "NC(=O)CN1CCCC1=O", "note": "[Piracetam, reference compound]", "values": [{"measurement": "Latency (s)", "setting": "[1]; 300 mg/kg p.o. one hour before acquisition trial, CO2 treatment +, retrieval trial 24 h later (max. 180 s)", "result": "108.8*** s"}, {"measurement": "time of entry ('step-through' latency) compared with vehicle", "setting": "[1]; oral doses of 40 or 1000 mg/kg, indicates no marked muscle incoordination or CNS effects", "result": "no significant differences"}, {"measurement": "'step-through' latencies", "setting": "[1]; piracetam treatment, dose not given", "result": "statistically significantly longer"}]}]}
